{
  "source": "patent US20250114361A1",
  "about": "“PYRAZOLOPYRIMIDINE COMPOUND AND PHARMACEUTICAL USE THEREOF” (Japan Tobacco Inc., priority 2022, published 2025)",
  "origin": "cited, not measured here",
  "key": {"[1]": {"test_system": "mouse strain expressing CAPS-related NLRP3 mutations", "conditions": "in vivo; cited from earlier work"}, "MOG35-55EAE model mice": {"test_system": "MOG35-55EAE model mice", "conditions": "administration after the onset; cited from earlier work"}, "[2]": {"test_system": "pilocarpine-induced epilepsy model mice", "conditions": "mouse, in vivo; cited from earlier work"}, "[3]": {"test_system": "intestinal perforation model", "conditions": "in vivo; cited from earlier work"}, "[4]": {"test_system": "intracerebral bleeding model rats", "conditions": "cited from earlier work"}, "APP/PS1 mice": {"test_system": "APP/PS1 mice", "conditions": "mouse, in vivo; cited from earlier work"}, "microglia": {"test_system": "microglia", "conditions": "cited from earlier work"}, "[5]": {"test_system": "mice with spinal cord injury", "conditions": "mouse, in vivo; cited from earlier work"}, "[6]": {"test_system": "mice infected with SARS-CoV-2", "conditions": "mouse, in vivo; cited from earlier work"}, "[7]": {"test_system": "maternal immune activation (MIA) model", "conditions": "administration to the mother; cited from earlier work"}, "R6/2 mice": {"test_system": "R6/2 mice", "conditions": "mouse, in vivo; cited from earlier work"}, "TBI model mice": {"test_system": "TBI model mice", "conditions": "mouse, in vivo; cited from earlier work"}, "[8]": {"test_system": "middle cerebral artery occlusion (MCAO) mice", "conditions": "MCAO model; cited from earlier work"}, "[9]": {"test_system": "STZ-induced diabetic mice", "conditions": "mouse, in vivo; cited from earlier work"}, "[10]": {"test_system": "α-synuclein PFF injected mice", "conditions": "mouse, in vivo; cited from earlier work"}, "[11]": {"test_system": "pathological models of depressive illness", "conditions": "in vivo; cited from earlier work"}, "[12]": {"test_system": "mouse model of deoxycorticosterone acetate-salt", "conditions": "in vivo; cited from earlier work"}, "[13]": {"test_system": "intra-articular urate-injected arthritis model", "conditions": "in vivo; cited from earlier work"}},
  "data": [
    {"smiles": "O=C(O)c1ccc(/C=C2/SC(=S)N(Cc3cccc(C(F)(F)F)c3)C2=O)cc1", "note": "[CY-09]", "values": [
      {"measurement": "systemic lethal inflammation and survival", "setting": "[1]", "value": "suppressed systemic lethal inflammation and improved the survival"}
    ]},
    {"smiles": "COc1ccc(Cl)cc1C(=O)NCCc1ccc(S(=O)(=O)NO)cc1", "note": "[JC-171]", "values": [
      {"measurement": "impairment of motor function", "setting": "MOG35-55EAE model mice", "value": "inhibited the impairment of motor function"}
    ]},
    {"smiles": "CC(C)(O)c1coc(S(=O)(=O)NC(=O)Nc2c3c(cc4c2CCC4)CCC3)c1", "note": "[MCC950]", "values": [
      {"measurement": "apoptosis of hippocampal neurons", "setting": "[2]", "value": "suppress apoptosis of hippocampal neurons"},
      {"measurement": "NLRP3 inflammasome activation and memory impairment", "setting": "[3]", "value": "NLRP3 inflammasome activation is suppressed and the memory impairment is improved"},
      {"measurement": "neuroprotective effects", "setting": "[4]", "value": "showed neuroprotective effects"},
      {"measurement": "NLRP3 activation in microglia and cognitive dysfunction", "setting": "APP/PS1 mice", "value": "suppresses NLRP3 activation in microglia and improves cognitive dysfunction"},
      {"measurement": "NLRP3 activation in microglia and IL-1β production", "setting": "microglia", "value": "inhibits SOD1G93A and TDP-43 protein-induced NLRP3 activation in microglia and decreases IL-1β production"},
      {"measurement": "NLRP3 activation and IL-1β expression in the spinal cord, recovery of motor function", "setting": "[5]", "value": "NLRP3 activation and IL-1β expression in the spinal cord are suppressed, and the recovery of motor function is promoted"},
      {"measurement": "NLRP3 inflammasome activation in the lung and dysregulated immune response", "setting": "[6]", "value": "inhibits NLRP3 inflammasome activation in the lung and suppresses the dysregulated immune response"},
      {"measurement": "ASD symptoms in offspring", "setting": "[7]", "value": "suppresses ASD symptoms in offspring"},
      {"measurement": "NLRP3 inflammasome activation, neuronal death in the striatum, symptom progression", "setting": "R6/2 mice", "value": "inhibits NLRP3 inflammasome activation in the striatum of R6/2 mice, suppresses neuronal death in the striatum, and suppresses symptom progression"},
      {"measurement": "IL-1β production and neurological symptoms after brain injury", "setting": "TBI model mice", "value": "inhibits IL-1β production in TBI model mice and suppresses the development of neurological symptoms after brain injury"},
      {"measurement": "neuroprotective effects", "setting": "[8]", "value": "showed neuroprotective effects"},
      {"measurement": "increased vascular permeability", "setting": "[9]", "value": "alleviated increased vascular permeability"},
      {"measurement": "NLRP3 activation and neuronal death of dopamine neurons in the substantia nigra", "setting": "[10]", "value": "inhibits NLRP3 activation in the substantia nigra and suppresses neuronal death of dopamine neurons in the substantia nigra"},
      {"measurement": "depressive symptoms", "setting": "[11]", "value": "improves depressive symptoms"},
      {"measurement": "hypertension", "setting": "[12]", "value": "suppress hypertension"}
    ]},
    {"smiles": "CS(=O)(=O)CCC#N", "note": "[OLT1177]", "values": [
      {"measurement": "arthritis", "setting": "[13]", "value": "suppressed arthritis"}
    ]}
  ]
}
